System: LG0703-F498-PDC complex spheroid growth
Experiment: Anticancer human tumor LG0703-F498-PDC patient-derived lung adenocarcinoma cell line growth inhibition [AhR]
Details: for IC50: curve of first compound; for viability, T/C: stronger effect = lower value
Method in brief: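 Complex tumor spheroids co-cultured with HUVEC and human MSC stroma; AhR antagonists tested in combination with standard-of-care and investigational agents. Top concentration at or near clinical Cmax (else 10 microM), half-log dilutions; growth expressed as percent test/control.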

[1] = second compound 0.1 µM, first compound 0.0316 µM
[2] = second compound 0.1 µM, first compound 0.1 µM
[3] = second compound 0.1 µM, first compound 0.316 µM
[4] = second compound 0.1 µM, first compound 1 µM
[5] = second compound 0.1 µM, first compound 3.16 µM
[6] = second compound 0.1 µM, first compound 10 µM
[7] = second compound 0.316 µM, first compound 0.0316 µM
[8] = second compound 0.316 µM, first compound 0.1 µM
[9] = second compound 0.316 µM, first compound 0.316 µM
[10] = second compound 0.316 µM, first compound 1 µM
[11] = second compound 0.316 µM, first compound 3.16 µM
[12] = second compound 0.316 µM, first compound 10 µM
[13] = second compound 1 µM, first compound 0.0316 µM
[14] = second compound 1 µM, first compound 0.1 µM
[15] = second compound 1 µM, first compound 0.316 µM
[16] = second compound 1 µM, first compound 1 µM
[17] = second compound 1 µM, first compound 3.16 µM
[18] = second compound 1 µM, first compound 10 µM
[19] = second compound 3.16 µM, first compound 0.0316 µM
[20] = second compound 3.16 µM, first compound 0.1 µM
[21] = second compound 3.16 µM, first compound 0.316 µM
[22] = second compound 3.16 µM, first compound 1 µM
[23] = second compound 3.16 µM, first compound 3.16 µM
[24] = second compound 3.16 µM, first compound 10 µM
[25] = second compound 10 µM, first compound 0.0316 µM
[26] = second compound 10 µM, first compound 0.1 µM
[27] = second compound 10 µM, first compound 0.316 µM
[28] = second compound 10 µM, first compound 1 µM
[29] = second compound 10 µM, first compound 3.16 µM
[30] = second compound 10 µM, first compound 10 µM
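Further: luminescence taken as a proxy for viable cell amount.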
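Wherever viability, T/C is given: percent of DMSO vehicle control where 100% means growth equal to vehicle.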

| Structure (SMILES) | IC50 (second compound 0.1 µM) [µM] | IC50 (second compound 0.316 µM) [µM] | IC50 (second compound 1 µM) [µM] | IC50 (second compound 3.16 µM) [µM] | IC50 (second compound 10 µM) [µM] | viability, T/C [1] [%] | viability, T/C [2] [%] | viability, T/C [3] [%] | viability, T/C [4] [%] | viability, T/C [5] [%] | viability, T/C [6] [%] | viability, T/C [7] [%] | viability, T/C [8] [%] | viability, T/C [9] [%] | viability, T/C [10] [%] | viability, T/C [11] [%] | viability, T/C [12] [%] | viability, T/C [13] [%] | viability, T/C [14] [%] | viability, T/C [15] [%] | also measured |
| --- | --- | --- | --- | --- | --- | --- | --- | --- | --- | --- | --- | --- | --- | --- | --- | --- | --- | --- | --- | --- | --- |
| Nc1ccccc1NC(=O)c1ccc(CNC(=O)OCc2cccnc2)cc1 + Cc1cncc(-c2nc(NCCc3c[nH]c4ccccc34)c3ncn(C(C)C)c3n2)c1 | 0.849 | 0.563 | 0.571 | < 0.0316 | < 0.0316 | 93 | 89.2 | 68.7 | 53.4 | 4.49 | 0.69 | 100 | 90.4 | 67.2 | 34.5 | 3.29 | 0.43 | 78.4 | 87.5 | 62.8 | viability, T/C [16]: 36.5%; viability, T/C [17]: 2.86%; viability, T/C [18]: 0.16%; viability, T/C [19]: 34%; viability, T/C [20]: 23.7%; viability, T/C [21]: 21%; viability, T/C [22]: 10.6%; viability, T/C [23]: 3.34%; viability, T/C [24]: 0.15%; viability, T/C [25]: 0.75%; viability, T/C [26]: 0.81%; viability, T/C [27]: 0.77%; viability, T/C [28]: 0.69%; viability, T/C [29]: 0.77%; viability, T/C [30]: 0.17% |
| O=C(C=Cc1cccc(S(=O)(=O)Nc2ccccc2)c1)NO + Cc1cncc(-c2nc(NCCc3c[nH]c4ccccc34)c3ncn(C(C)C)c3n2)c1 | 0.619 | 0.657 | 0.523 | 0.423 | < 0.0316 | 118 | 115 | 75.8 | 30.8 | 10.1 | 1.27 | 111 | 104 | 81.1 | 32 | 7.58 | 1.48 | 106 | 108 | 69.3 | viability, T/C [16]: 23.6%; viability, T/C [17]: 6.31%; viability, T/C [18]: 0.83%; viability, T/C [19]: 59.9%; viability, T/C [20]: 71.5%; viability, T/C [21]: 57.8%; viability, T/C [22]: 25%; viability, T/C [23]: 6.63%; viability, T/C [24]: 1.68%; viability, T/C [25]: 1.93%; viability, T/C [26]: 2.88%; viability, T/C [27]: 4.14%; viability, T/C [28]: 8.01%; viability, T/C [29]: 9.58%; viability, T/C [30]: 1.55% |
| O=C(c1cc(Cc2n[nH]c(=O)c3ccccc23)ccc1F)N1CCN(C(=O)C2CC2)CC1 + Cc1cncc(-c2nc(NCCc3c[nH]c4ccccc34)c3ncn(C(C)C)c3n2)c1 | > 10 | > 10 | > 10 | < 0.0316 | < 0.0316 | 105 | 98.5 | 99.3 | 84.1 | 93.4 | 72.5 | 90.7 | 103 | 95 | 95.5 | 89.4 | 80.8 | 108 | 95.9 | 99.8 | viability, T/C [16]: 99.4%; viability, T/C [17]: 98.3%; viability, T/C [18]: 78.1%; viability, T/C [19]: 40.2%; viability, T/C [20]: 43.1%; viability, T/C [21]: 51.7%; viability, T/C [22]: 46.2%; viability, T/C [23]: 40%; viability, T/C [24]: 43%; viability, T/C [25]: 0.8%; viability, T/C [26]: 0.83%; viability, T/C [27]: 0.8%; viability, T/C [28]: 0.79%; viability, T/C [29]: 0.66%; viability, T/C [30]: 1.47% |

Source: PubChem BioAssay AID1919013 (Molecular Pharmacology Branch, DTP, NCI, 2023)
